Experimental data taken from PMC7828111, “In Search for Multi-Target Ligands as Potential Agents for Diabetes Mellitus and Its Complications—A Structure-Activity Relationship Study on Inhibitors of Aldose Reductase and Protein Tyrosine Phosphatase 1B” (Molecules, 2021).
Read-outs that look alike come from different tables or passages of the source.

What was measured:
human recombinant PTP1B [1] = molecular target: T1, human recombinant PTP1B (Homo sapiens, UniProt P18031); set-up: method as in PMID 30342956; conditions: reversible inhibitors; cited from earlier work
T1 sequence (P18031 1-435): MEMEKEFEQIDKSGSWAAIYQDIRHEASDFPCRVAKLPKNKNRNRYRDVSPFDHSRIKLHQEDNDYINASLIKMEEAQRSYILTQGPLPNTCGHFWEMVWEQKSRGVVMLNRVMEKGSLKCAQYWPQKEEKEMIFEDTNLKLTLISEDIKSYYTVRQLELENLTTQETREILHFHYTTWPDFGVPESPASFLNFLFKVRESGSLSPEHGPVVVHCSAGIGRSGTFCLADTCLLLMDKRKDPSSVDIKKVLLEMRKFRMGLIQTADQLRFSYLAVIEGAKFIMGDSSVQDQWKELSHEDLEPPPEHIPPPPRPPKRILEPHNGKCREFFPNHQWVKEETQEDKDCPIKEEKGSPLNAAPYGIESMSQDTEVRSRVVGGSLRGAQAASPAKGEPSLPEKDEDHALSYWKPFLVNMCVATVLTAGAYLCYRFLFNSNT

human recombinant AR [2] = molecular target: T2, human recombinant AR (Homo sapiens, UniProt P15121); set-up: method as in PMID 30342956; conditions: reversible inhibitors; cited from earlier work
T2 construct: made in house; host or cells: E. coli BL21(DE3)pLysS

human recombinant AR [3] = molecular target: T2, human recombinant AR; experiment: Reversibility of AR inhibition (dialysis); type: biochemical
Protocol: In order to evaluate the reversibility of the inhibitory action, 8 mU of purified AR were assayed in the presence of 5 μM of compounds 4a, 4e and 4f. In these conditions less than 15% of the enzyme activity was measured in the presence of 2 mM L-idose as substrate. The mixture was then extensively dialysed on Amicon ultrafiltration membrane (cut off 10 KDa) against 10 mM sodium phosphate buffer, pH 7.0. After dialysis, the enzyme activity was again measured as above and compared to that of a mixture in the absence of inhibitor and treated in the same conditions.

human recombinant AR [4] = molecular target: T2, human recombinant AR; experiment: Inhibition of human recombinant AR, L-idose as substrate (NADPH oxidation at 340 nm); type: biochemical; conditions: human recombinant AR, 2 mM L-idose as substrate; mean ± S.E.M
Protocol: The human recombinant AR was expressed in BL21(DE3)pLysS E. coli cells and purified to electrophoretic homogeneity as previously described. The purified enzyme (specific activity 5.0 U/mg) was stored at −80 °C in 10 mM sodium phosphate buffer pH 7.0 containing 2 mM dithiothreitol and 30% (w/v) glycerol. AR activity was determined at 37 °C as previously described evaluating the decrease in absorbance at 340 nm linked to NADPH oxidation. […] One unit of enzyme activity is the amount that catalyzes the conversion of 1 μmol of substrate/min in the above assay conditions.
All compounds tested as aldose reductase inhibitors were dissolved in DMSO and added to the assay mixture containing 8 mU of purified AR. The reaction was started by addition of the substrate. The DMSO concentration in all the assays was kept constant at 0.5% (v/v) in order to avoid effects on AR activity.
The IC50 values were determined by nonlinear regression analysis using Prism GraphPad 6.0 fitting experimental data to the following equation:(1) vi/v0= Max−Min/1+( I/IC50)^slope +Min
In the equation, vi/v0, represents the ratio between the activity measured in the presence of the inhibitor and the activity measured in the absence of inhibitor; Max and Min represent the expected maximal and minimal value of the activity and were fixed at 1 and zero, respectively. Slope, which describes the steepness of curve in the transition region, was fixed at −1. For each compound, at least five different concentrations of inhibitor in the triplicate assay were analyzed.

human recombinant PTP1B [5] = molecular target: T1, human recombinant PTP1B; experiment: Kinetic analysis of PTP1B inhibition (Lineweaver-Burk plot); type: biochemical; conditions: pNPP as substrate
Protocol: Kinetic analyses were carried out to dissect action mechanism of compound 4e and 4f. Briefly, the main kinetic parameters, Km and Vmax, were calculated measuring the initial hydrolysis rate of PTP1B in the presence of increasing pNPP concentration (seven different concentrations in the 0.5–25 mM range). All assays were carried out in duplicate. Data obtained were fitted using the Michaelis-Menten equation. To evaluate the action mechanism of inhibitors, we studied the dependence of Km and Vmax from inhibitors concentration, using three different inhibitor concentrations, at least. Data obtained were then analysed by double reciprocal plot (Lineweaver-Burk plot).

human recombinant PTP1B [6] = molecular target: T1, human recombinant PTP1B; experiment: Reversibility assay (dilution test) with PTP1B; type: biochemical; conditions: saturating inhibitor, 60 min 37 °C, diluted 400 folds
Protocol: An aliquot of the enzyme was incubated for 60 min at 37 °C in the presence of saturating amount of PTP1B inhibitor. After this time, an aliquot of the enzyme was withdrawn and diluted 400 folds in the assay buffer containing 2.5 mM of pNPP. After 15 min, the reaction was stopped by adding 1 mL of KOH 0.2 M. The amount of pNP released was calculating measuring the absorbance at 400 nm of solutions using a spectrophotometer. Data obtained were normalized respect to control tests, which was carried out diluting the enzyme with DMSO, the solvent used to dissolve all compounds. Data reported in the figure represent the mean value +/− S.E.M. (n = 3).

human recombinant PTP1B [7] = molecular target: T1, human recombinant PTP1B; experiment: Inhibition of human recombinant PTP1B, p-nitrophenyl phosphate as substrate; type: biochemical; conditions: human recombinant PTP1B, pNPP as substrate; mean ± S.E.M
Protocol: PTP1B activity was determined as follow. […] After an appropriate interval time, the reaction was stopped diluting assay solution with 2 mL of KOH 0.1 M. The amount of p-nitrophenol released was determined measuring the absorbance of the solution at 400 nm using a spectrophotometer and a 1-cm optical pathlength (εmM of p-nitrophenol is 18). The IC50 value was determined measuring the pNPP hydrolysis rate in the presence of increasing inhibitor concentration. For each inhibitor, 15–16 different concentrations were used. All tests were carried out in triplicate and data obtained were normalized respect to control sample.

human recombinant AR [8] = molecular target: T2, human recombinant AR; experiment: Kinetic analysis of AR inhibition (Lineweaver-Burk and secondary plots); type: biochemical
Protocol: The kinetic analysis of compounds 4a, 4e and 4f was performed by measuring reaction rates with different L-idose concentrations s (S) in the absence and in the presence of different inhibitors concentrations. Data were analyzed by Linewever-Burk plots.

AR enzyme activity recovered after removal of the inhibitor upon extensive dialysis (human recombinant AR [3]; 5 μM compound before dialysis)	AR enzyme activity measured in the presence of compound (human recombinant AR [3]; 5 μM compound, 2 mM L-idose, before dialysis)	IC50 (human recombinant AR [4]) [nM]	Mechanism of PTP1B inhibition (human recombinant PTP1B [5])	PTP1B K′i (apparent dissociation constant, EIS complex) (human recombinant PTP1B [5]) [µM]	Ki (human recombinant PTP1B [5]; read-out: PTP1B Ki (apparent dissociation constant)) [nM]	melting point [°C]	Reversibility of PTP1B inhibition (human recombinant PTP1B [6])	IC50 (human recombinant PTP1B [7]) [nM]	AR Ki relative to K′i (human recombinant AR [8]; Ki higher than K′i)	AR K′i (apparent dissociation constant, EIS complex) (human recombinant AR [8]; L-idose as substrate) [µM]	Mechanism of AR inhibition (human recombinant AR [8]; L-idose as substrate)	Ki (human recombinant AR [8]; L-idose as substrate, read-out: AR Ki (apparent dissociation constant)) [nM]	Compound	Mechanism of PTP1B inhibition (human recombinant PTP1B [1])	Mechanism of AR inhibition (human recombinant AR [2])
													O=C(O)CN1C(=O)/C(=C/c2cccc(OCCc3ccccc3)c2)SC1=S [2e, (4-oxo-5-{[3-(2-phenylethoxy)pheny]lmethylidene}-2-thioxothiazolidin-3-yl)acetic acid]	non-competitive	uncompetitive
more than 90%	less than 15%	2300 ± 100	competitive inhibitor	>12	2200 ± 300	136 to 138	reversible inhibitors	55500 ± 800	at least ten-fold higher	0.66 ± 0.30	uncompetitive inhibitors	> 8000	O=C(O)CCN1C(=O)/C(=C/c2cccc(OCCc3ccccc3)c2)SC1=S [4e, 3-[(5Z)-4-Oxo-{5-[3-(2-phenylethoxy)phenyl]methylidene}-2-thioxothiazolidin-3-yl]propanoic acid]		
													O=C(O)CN1C(=O)S/C(=C\c2cccc(OCCc3ccccc3)c2)C1=O [1e]	non-competitive	uncompetitive
